This is an account of results in US7091351B2, “Vanadium compounds for treating cancer” (Parker Hughes Institute, priority 1998, dated 2006).

For data set [1], the system named is Tera-2 and Ntera-2 human testicular cancer cell lines. In words: MTT cytotoxicity assay, text statements for both testicular cancer cell lines. To be noted: Tera-2 and Ntera-2, tested side-by-side, up to 250 μM; read-out: IC50 (cytotoxicity, two testicular cancer cell lines). Type of data set: cell-based. On the technique in general: Tetrazolium dyes change colour on reduction, which living cells bring about.
Experimental: Human testicular cancer cell lines, Tera-2 (embryonal carcinoma) and Ntera-2 (pluripotent embryonal carcinoma) were obtained from the American Type Culture Collection (ATCC) (Rockeville, Md.) and propagated in T-25, T-75, or T-150 cm^2 tissue culture flasks (Corning Corp., Corning, N.Y.) in McCoy's 5A medium and Dulbecco's modified Eagle's medium respectively. Both media were supplemented with 10% fetal calf serum (FCS), 4 mM glutamine, 100 U/ml penicillin G, and 100 mg/ml streptomycin sulfate. All tissue culture reagents were obtained from Life Technologies Inc. (GIBCO-BRL), Gaithersburg, Md. Cell lines were cultivated for a minimum of two passages after thawing prior to experimentation.
MTT (3-[4,5-dimethyl thiazol-2-yl]-2,5-diphenyltetrazolium bromide)-based colorimetric assays were used for evaluation of the cytotoxicity of vanadocene compounds. […] Briefly, cells were harvested with 0.125% (w/v) trypsin-0.02% EDTA (GIBCO-BRL) from exponential-phase maintenance cultures and centrifuged (300 g×5 min). After suspension and counting, cells were dispensed within triplicate 96-well tissue culture plates in 100 μl volumes. […] After an overnight incubation at 37° C., the optical densities at 540 nm were measured using a 96-well multiscanner autoreader, with the solubilization buffer serving as blank. All assays were run in triplicate and results were expressed as IC50 values.

The test system of data set [2] is Ntera-2 testicular cancer cells. In words: MTT cytotoxicity assay of vanadocenes, NTERA-2 cells. The note with it: 24 h, 1.9-250 μM. Type of data set: cell-based, human. Put shortly: (§1)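 IC50 values come from MTT colorimetry (540 nm) after 24 h drug treatment at 1.9–250 μM in two-fold steps, started 24 h post-seeding. Formazan formed over 4 h at 37 °C and was solubilized overnight in 10% SDS/0.1% HCl; triplicate wells, 0.25% DMSO solvent control.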

Data set [3] has as its system Tera-2 testicular cancer cells. Put plainly: MTT cytotoxicity assay of vanadocenes, TERA-2 cells. The format is cell-based, human. The note with it: 24 h, 1.9-250 μM. Put shortly:
as §1

Data set [4] relates to HS-SULTAN multiple myeloma cells. In words: MTT cytotoxicity assay of oxovanadium(IV) compounds, HS-SULTAN. To be noted: 48 hr. The format is cell-based, human. Here is the method: (§2) The cytotoxicity of oxovanadium (W) complexes listed in Table 6 were tested against 9 different human cancer cell lines was performed using the MTT (3-[4,5-dimethylthiazol-2-yl]-2,5-diphenyl tetrazolium bromide) assay (Boehringer Mannheim Corp., Indianapolis, Ind.) as described previously (20). Briefly, exponentially growing tumor cells were seeded into a 96-well plate at a density of 4×10^4cells/well and incubated with medium containing the oxovanadium(IV) compounds concentrations ranging from 0.1 to 250 μM for 48 hours at 37° C. in a humidified 5% CO2 atmosphere. Triplicate wells were used for each treatment. To each well, 10 μl of MTT (0.5 mg/ml final concentration) was added and the plates were incubated at 37° C. for 4 hours to allow MTT to form formazan crystals by reacting with metabolically active cells . The formazan crystals were solubilized overnight at 37° C. in a solution containing 10% SDS in 0.01 M HCl. The absorbence of each well was measured in a microplate reader (Labsystems) at 540 nm and a reference wavelength of 690 nm. To translate the OD540 values into the number of live cells in each well, the OD540 values were compared to those on standard OD540—versus—cell number curves generated for each cell line. The percent survival was calculated using the formula: % survival=Live cell number[test]/Live cell number [control]×100. The IC50 values were calculated by non-linear regression analysis using an Graphpad Prism software version 2.0 (Graphpad Software, Inc., San Diego, Calif.).

The subject of data set [5] is U266BL multiple myeloma cells. Put plainly: MTT cytotoxicity assay of oxovanadium(IV) compounds, U266BL. The format is cell-based, human. To be noted: 48 hr. The procedure:
as §2

The next data set relates to MOLT-3 cells. Put plainly: MTT cytotoxicity assay of oxovanadium(IV) compounds, MOLT-3. The format is cell-based, human. The note with it: 48 hr. Here is the method:
as §2

Data set [6] has as its system NALM-6 cells. In words: MTT cytotoxicity assay of oxovanadium(IV) compounds, NALM-6. Type of data set: cell-based, human. The note with it: 48 hr. Here is the method:
as §2

The subject of the next data set is U373 glioblastoma cells. Put plainly: Cytotoxic activity of oxovanadium(IV) compounds, U373. Type of data set: cell-based, human. To be noted: read-out: Cytotoxic Activity U373. Here is the method:
as §2

Data set [7] concerns Tera-2 testicular cancer cells. Put plainly: Cytotoxic activity of oxovanadium(IV) compounds, TERA-2. The note with it: read-out: Cytotoxic Activity TERA-2. Type of data set: cell-based, human. The procedure:
as §2

In data set [8] the test system is 833-K testicular cancer cells. In words: Cytotoxic activity of oxovanadium(IV) compounds, 833-K. The note with it: read-out: Cytotoxic Activity 833-K. Type of data set: cell-based, human. Here is the method: as §2
For data set [9], the system named is 64cp5 testicular cancer cells. Put plainly: Cytotoxic activity of oxovanadium(IV) compounds, 64cp5. The format is cell-based, human. To be noted: read-out: Cytotoxic Activity 64cp5. Here is the method:
as §2

In data set [10] the test system is PC3 prostate cancer cells. In words: Cytotoxic activity of oxovanadium(IV) compounds, PC3. Type of data set: cell-based, human. The note with it: read-out: Cytotoxic Activity PC3. The procedure: as §2
A further data set relates to HL-60 cells. In words: MTT cytotoxicity assay of oxovanadium(IV) compounds, HL-60. Type of data set: cell-based, human. The note with it: 48 hr. Here is the method: as §2
Another data set deals with BT20 breast cancer cells. In words: Cytotoxic activity of oxovanadium(IV) compounds, BT20. Type of data set: cell-based, human. The note with it: read-out: Cytotoxic Activity BT20. The procedure: as §2
For data set [11], the system named is HS445 Hodgkin's lymphoma cells. In words: MTT cytotoxicity assay of oxovanadium(IV) compounds, HS445. The format is cell-based, human. To be noted: 48 hr. Here is the method: as §2
In data set [12] the test system is NALM-6 cells. Put plainly: In situ detection of apoptosis, confocal microscopy, NALM-6. To be noted: 48 hours after treatment. Type of data set: cell-based, human. Here is the method: (§3) Exponentially growing cells were seeded in 6-well tissue culture plates and incubated with fresh medium containing compounds. […] The cells were fixed in 2% paraformaldehyde, washed with PBS and pelleted by centrifuging the tubes at 1000 rpm for 5 min. Cells pellets were resuspended in 50 μl of PBS, transferred to superforst plus slides and allowed to attach for 15 min. The cells were permeabilized with 0.1% triton X-100 in 0.1% citrate buffer and incubated for 1 hr at 37° C. with the reaction mixture containing terminal deoxynucleotidyl transferase (TdT) and fluorescein isothiocyanate (FITC)-conjugated dUTP. Cells were washed with PBS to remove unbound reagents and the coverslips were mounted onto slides with Vectashield containing propidium iodide (Vector Labs, Burlingame, Calif.) and slides were viewed with a confocal laser scanning microscope. […] In control reactions, the TdT enzyme was omitted from the reaction mixture.

Data set [13] concerns ARH77 multiple myeloma cells. Put plainly: MTT cytotoxicity assay of oxovanadium(IV) compounds, ARH77. The format is cell-based, human. To be noted: 48 hr. Here is the method: as §2, with “Briefly, exponentially growing tumor cells were seeded into a 96-well plate at a density of 4×10^4cells/well and incubated with medium containing the oxovanadium(IV) compounds concentrations ranging from 0.1 to 250 μM for 48 hours at 37° C. in a humidified 5% CO2 atmosphere.” left out

Data set [14] deals with NTD1 testicular cancer cells. Put plainly: Cytotoxic activity of oxovanadium(IV) compounds, NTD1. The format is cell-based, human. To be noted: read-out: Cytotoxic Activity NTD1. Here is the method: as §2
For the next data set, the system named is HS-SULTAN cells. In words: In situ detection of apoptosis, confocal microscopy, HS-SULTAN. To be noted: 48 hours after treatment. The format is cell-based, human. The procedure: as §3

Take `O=S(=O)([O-])[O-].[O]=[V+2]` [VDSO4, vanadyl(IV) sulfate, reference compound]: the IC50 in data set [1], in data set [2] and in data set [3] was > 250 µM each time.
On to “(diaqua)(4,7-dimethyl-1,10-phenanthroline)oxovanadium(IV) sulfate [Compound 28]”, for which the IC50 amounted to 5.1 ± 1.02 µM in [4]; 1.3 ± 0.1 µM in data set [5]; 1.37 ± 0.07 µM in the data set on MOLT-3 cells; 0.78 ± 0.1 µM in the data set on NALM-6 cells [6]; 2.2 µM in the data set on U373 glioblastoma cells; 57.6 µM in [7]. In addition, the IC50 in data set [8] stood at 6 µM; in data set [9] it was 15.2 µM; in [10] it was 5.8 µM; in the data set on HL-60 cells, 6.2 ± 2.3 µM; in the data set with BT20 breast cancer cells, 2.1 µM; in data set [11], 3.3 ± 1.4 µM. The results for the IC50 in data set [13] and in data set [14] were 8.1 ± 1.6 µM and 12.8 µM, respectively. Also, in the data set on NALM-6 cells [12], the “apoptotic nuclei (FITC-dUTP / propidium iodide), NALM-6” value is “many apoptotic yellow nuclei”. The “apoptotic nuclei (FITC-dUTP / propidium iodide), HS-SULTAN” value with HS-SULTAN cells was “many apoptotic yellow nuclei”.
